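Where inhibition never reached the appropriate level, the endpoint shown equals the highest concentration tested. Otherwise, values were interpolated linearly from a five-concentration, 48-hour dose response in 96-well plates. Here, GI50 denotes the concentration required for 50% inhibition of growth.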 Activity calls are given as the source filed them. Cut-off read from the data, not from the text of the source: active = GI50 up to about 1.1 µM and inactive = higher.
Tests used:
Test in all cases: growth of human tumour cells (NCI), 48 h
HCC 2998 = system: HCC 2998
NCI/ADR-RES = system: NCI/ADR-RES
CCRF-CEM = system: CCRF-CEM
KM12 = system: KM12
OVCAR-3 = system: OVCAR-3
RPMI-8226 = system: RPMI-8226
SR = system: SR
SNB-19 = system: SNB-19
RXF 393 = system: RXF 393
Hs-578T = system: Hs-578T
A549 = system: A549
HT-29 = system: HT-29
MOLT-4 = system: MOLT-4
HOP-62 = system: HOP-62
SK-MEL-28 = system: SK-MEL-28
SK-OV-3 = system: SK-OV-3
DU-145 = system: DU-145
TK-10 = system: TK-10
M14 = system: M14
NCI-H460 = system: NCI-H460
OVCAR-5 = system: OVCAR-5
OVCAR-8 = system: OVCAR-8
MDA-MB-435 = system: MDA-MB-435
IGROV-1 = system: IGROV-1
A498 = system: A498
NCI-H226 = system: NCI-H226
CAKI-1 = system: CAKI-1
K562 = system: K562
COLO 205 = system: COLO 205
UACC-257 = system: UACC-257
U-251 = system: U-251
SNB-75 = system: SNB-75
ACHN = system: ACHN
SF-539 = system: SF-539
BT-549 = system: BT-549
SK-MEL-2 = system: SK-MEL-2
LOX IMVI = system: LOX IMVI
HCT-15 = system: HCT-15
HOP-92 = system: HOP-92
MDA-N = system: MDA-N
UO-31 = system: UO-31
HCT-116 = system: HCT-116
OVCAR-4 = system: OVCAR-4
EKVX = system: EKVX
HL-60 = system: HL-60
MDA-MB-231 = system: MDA-MB-231
SF-268 = system: SF-268
T47D = system: T47D
SW-620 = system: SW-620
SF-295 = system: SF-295
PC-3 = system: PC-3
NCI-H522 = system: NCI-H522
Malme-3M = system: Malme-3M
786-0 = system: 786-0
MCF7 = system: MCF7
NCI-H23 = system: NCI-H23
UACC-62 = system: UACC-62
SN12C = system: SN12C
SK-MEL-5 = system: SK-MEL-5

Nc1nc(N)c2cc(Sc3ccc4nc(N)nc(N)c4c3)ccc2n1
GI50 (HCC 2998): 558 nM (active) | GI50 (NCI/ADR-RES): > 31.6 µM (inactive) | GI50 (CCRF-CEM): 19.4 nM (active) | GI50 (KM12): 2.15 µM (inactive) | GI50 (OVCAR-3): > 31.6 µM (inactive) | GI50 (RPMI-8226): 4.89 µM (inactive) | GI50 (SR): > 100 µM (inactive) | GI50 (SNB-19): 4.23 µM (inactive) | GI50 (RXF 393): > 100 µM (inactive) | GI50 (Hs-578T): > 100 µM (inactive) | GI50 (A549): < 10 nM (active) | GI50 (HT-29): 93.3 nM (active) | GI50 (MOLT-4): 52.4 nM (active) | GI50 (HOP-62): > 100 µM (inactive) | GI50 (SK-MEL-28): > 100 µM (inactive) | GI50 (SK-OV-3): > 100 µM (inactive) | GI50 (DU-145): 1.13 µM (inactive) | GI50 (TK-10): > 100 µM (inactive) | GI50 (M14): > 100 µM (inactive) | GI50 (NCI-H460): < 14.5 nM (active) | GI50 (OVCAR-5): > 100 µM (inactive) | GI50 (OVCAR-8): 181 nM (active) | GI50 (MDA-MB-435): 52.2 nM (active) | GI50 (IGROV-1): 514 nM (active) | GI50 (A498): > 100 µM (inactive) | GI50 (NCI-H226): > 29.2 µM (inactive) | GI50 (CAKI-1): > 100 µM (inactive) | GI50 (K562): < 10 nM (active) | GI50 (COLO 205): 10.9 µM (inactive) | GI50 (UACC-257): > 100 µM (inactive) | GI50 (U-251): > 100 µM (inactive) | GI50 (SNB-75): > 100 µM (inactive) | GI50 (ACHN): 493 nM (active) | GI50 (SF-539): > 100 µM (inactive) | GI50 (BT-549): > 100 µM (inactive) | GI50 (SK-MEL-2): > 100 µM (inactive) | GI50 (LOX IMVI): 40.8 nM (active) | GI50 (HCT-15): 659 nM | GI50 (HOP-92): > 100 µM (inactive) | GI50 (MDA-N): > 100 µM (inactive) | GI50 (UO-31): > 100 µM (inactive) | GI50 (HCT-116): 200 nM (active) | GI50 (OVCAR-4): > 100 µM (inactive) | GI50 (EKVX): > 100 µM (inactive) | GI50 (HL-60): 53.3 nM (active) | GI50 (MDA-MB-231): > 100 µM (inactive) | GI50 (SF-268): 136 nM (active) | GI50 (T47D): > 44.2 µM (inactive)

O=[N+]([O-])c1cccc2nc3ccccc3c(NCCNCCO)c12
GI50 (HCC 2998): 2.17 nM (active) | GI50 (NCI/ADR-RES): 0.248 µM (active) | GI50 (CCRF-CEM): 15.8 nM (active) | GI50 (KM12): 0.0122 µM (active) | GI50 (OVCAR-3): 0.00558 µM (active) | GI50 (RPMI-8226): 0.00383 µM (active) | GI50 (SW-620): 0.00899 µM (active) | GI50 (SR): 0.00112 µM (active) | GI50 (SNB-19): 0.0349 µM (active) | GI50 (RXF 393): 0.00513 µM (active) | GI50 (Hs-578T): 0.0251 µM (active) | GI50 (A549): 3.37 nM (active) | GI50 (HT-29): 3.61 nM (active) | GI50 (MOLT-4): 4.02 nM (active) | GI50 (HOP-62): 0.0169 µM (active) | GI50 (SF-295): 0.00425 µM (active) | GI50 (SK-MEL-28): 0.047 µM (active) | GI50 (SK-OV-3): 0.0374 µM (active) | GI50 (DU-145): 0.00288 µM (active) | GI50 (TK-10): 0.0385 µM (active) | GI50 (M14): 0.011 µM (active) | GI50 (NCI-H460): 1.84 nM (active) | GI50 (OVCAR-5): 0.0109 µM (active) | GI50 (OVCAR-8): 7.33 nM (active) | GI50 (MDA-MB-435): 11 nM (active) | GI50 (IGROV-1): 1.98 nM (active) | GI50 (A498): 0.0121 µM (active) | GI50 (NCI-H226): 0.0166 µM (active) | GI50 (CAKI-1): 0.0178 µM (active) | GI50 (K562): 4.27 nM (active) | GI50 (COLO 205): 0.00176 µM (active) | GI50 (UACC-257): 0.0154 µM (active) | GI50 (U-251): 0.0118 µM (active) | GI50 (SNB-75): 0.0188 µM (active) | GI50 (PC-3): 0.00245 µM (active) | GI50 (ACHN): 8.75 nM (active) | GI50 (SF-539): 0.0326 µM (active) | GI50 (NCI-H522): 0.00109 µM (active) | GI50 (BT-549): 0.00542 µM (active) | GI50 (Malme-3M): 0.00877 µM (active) | GI50 (SK-MEL-2): 0.00281 µM (active) | GI50 (LOX IMVI): 4.13 nM (active) | GI50 (HCT-15): 40.5 nM | GI50 (HOP-92): 0.00365 µM (active) | GI50 (UO-31): 0.07 µM (active) | GI50 (786-0): 0.00348 µM (active) | GI50 (HCT-116): 19.7 nM (active) | GI50 (MCF7): 0.001 µM (active) | GI50 (OVCAR-4): 0.00335 µM (active) | GI50 (EKVX): 0.00853 µM (active) | GI50 (NCI-H23): 0.00146 µM (active) | GI50 (UACC-62): 0.01 µM (active) | GI50 (HL-60): 17.7 nM (active) | GI50 (MDA-MB-231): 0.017 µM (active) | GI50 (SN12C): 0.0122 µM (active) | GI50 (SF-268): 1.34 nM (active) | GI50 (SK-MEL-5): 0.00153 µM (active) | GI50 (T47D): 0.00819 µM (active)

Cc1ccc([N+](=O)[O-])cc1S(=O)(=O)Nc1ccc(C2=NN(S(=O)(=O)c3cc([N+](=O)[O-])ccc3C)C(c3ccco3)C2)cc1 (stereo not drawn)
GI50 (NCI/ADR-RES): 40.3 µM (inactive) | GI50 (CCRF-CEM): 27600 nM (inactive) | GI50 (KM12): 39.4 µM (inactive) | GI50 (OVCAR-3): 37.1 µM (inactive) | GI50 (RPMI-8226): 25.8 µM (inactive) | GI50 (SW-620): > 100 µM (inactive) | GI50 (SR): 33.5 µM (inactive) | GI50 (SNB-19): 46.1 µM (inactive) | GI50 (RXF 393): 26.8 µM (inactive) | GI50 (Hs-578T): > 100 µM (inactive) | GI50 (HT-29): 54000 nM (inactive) | GI50 (MOLT-4): 28200 nM (inactive) | GI50 (HOP-62): 45.2 µM (inactive) | GI50 (SF-295): 32.8 µM (inactive) | GI50 (SK-MEL-28): > 100 µM (inactive) | GI50 (SK-OV-3): > 100 µM (inactive) | GI50 (DU-145): 45 µM (inactive) | GI50 (M14): 42 µM (inactive) | GI50 (OVCAR-5): > 100 µM (inactive) | GI50 (OVCAR-8): 44500 nM (inactive) | GI50 (MDA-MB-435): 54700 nM (inactive) | GI50 (IGROV-1): 29600 nM (inactive) | GI50 (NCI-H226): 38.9 µM (inactive) | GI50 (CAKI-1): 45.8 µM (inactive) | GI50 (K562): 31000 nM (inactive) | GI50 (COLO 205): 39.4 µM (inactive) | GI50 (UACC-257): 11.1 µM (inactive) | GI50 (SNB-75): > 100 µM (inactive) | GI50 (PC-3): 45.5 µM (inactive) | GI50 (ACHN): 36600 nM (inactive) | GI50 (SF-539): 53 µM (inactive) | GI50 (NCI-H522): 45 µM (inactive) | GI50 (BT-549): 25.8 µM (inactive) | GI50 (Malme-3M): 47.2 µM (inactive) | GI50 (SK-MEL-2): 38 µM (inactive) | GI50 (LOX IMVI): 39000 nM (inactive) | GI50 (HCT-15): 41700 nM | GI50 (HOP-92): 16.7 µM (inactive) | GI50 (MDA-N): 43.9 µM (inactive) | GI50 (UO-31): 41.1 µM (inactive) | GI50 (786-0): 48.8 µM (inactive) | GI50 (HCT-116): 31900 nM (inactive) | GI50 (MCF7): 32.1 µM (inactive) | GI50 (OVCAR-4): 74.8 µM (inactive) | GI50 (EKVX): 29.2 µM (inactive) | GI50 (NCI-H23): 37.6 µM (inactive) | GI50 (UACC-62): 21.8 µM (inactive) | GI50 (HL-60): 38800 nM (inactive) | GI50 (SN12C): 44.8 µM (inactive) | GI50 (SF-268): 53300 nM (inactive) | GI50 (SK-MEL-5): 30.3 µM (inactive) | GI50 (T47D): 28.6 µM (inactive)

Source: ChEMBL document CHEMBL1201862, “PubChem BioAssay data set” (2004)
